# Legend:
# Type in all cases: physicochemical
# [1] = Solubility of balsalazide disodium in solvents
# [2] = Stability of standard and sample solutions in dissolution medium; conditions: room temperature, unprotected from light
# Procedure: Prepare the stock standard solution in duplicate. For each preparation, transfer approximately 35 mg of Balsalazide Disodium Reference Standard, accurately weighed, to a 200-mL volumetric flask. Add 150 mL of dissolution medium, swirl and briefly sonicate to dissolve the flask contents. Dilute to volume with dissolution medium and mix well. Stock Standard Preparation A should be used for analysis of dissolution samples. Prep B should be used as the standard check preparation. The stock standard preparation is stable for 4 days when stored at room temperature and unprotected from light.
# For each of the stock standard preparations, pipet 5.0 mL of the stock solution into a 50-mL volumetric flask, dilute to volume with dissolution medium, and mix well. The working standard preparation is stable for 4 days when stored at room temperature and unprotected from light.
# Perform USP Apparatus 2 dissolution testing on six individual capsules utilizing the dissolution conditions listed below. Immediately, filter the samples using a 0.2 μm Gelman Nylon filter or a 10-μm Vankel Full Flow filter, discarding the first 2 mL of sample. Pipet 2.0 mL of the sample filtrate into a 100-mL volumetric flask, dilute to volume with dissolution medium, and mix well (nominal concentration: 0.017 mg Balsalazide Disodium per mL). […]
# [3] = Particle size distribution and specific surface area (LS 200, Small Volume Module, Fraunhofer optical model); conditions: for Particle size, % < 10: 10% of volume below this size; for Particle size, % < 25: 25% of volume below this size; for Particle size, % < 50: 50% of volume below this size; for Particle size, % < 75: 75% of volume below this size; for Particle size, % < 100: 100% of volume below this size; for Mean particle size (volume statistics, arithmetic) / Median particle size (volume statistics, arithmetic) / Specific Surf. Area: calculations from 0.375 μm to 2000 μm
# Source text: FIG. 2 depicts and the data below tabulate for Sample 1 the arithmetic statistics describing surface area, particle size, and cumulative volume characteristics for one lot of drug substance (feed material). The particle size distribution for this lot is depicted in FIG. 2.
# Table 11 A-D tabulates the arithmetic statistics describing surface area, particle size, and cumulative volume characteristics for three lots of drug substance (feed material). The particle size distributions for these lots are depicted in FIG. 7. […] Of these three lots of drug substance, 100% of the particles are less than 83.89 μm, 373.1 μm, and 69.61 μm, respectively.
# Table 12 tabulates the arithmetic statistics describing surface area, particle size, and cumulative volume characteristics for three lots of drug product (encapsulated granulation samples) that were manufactured with the three lots of drug substance (feed material) as depicted in FIG. 7. […] Of these three lots of drug product, 100% of the granules are less than 1660 μm, 2000 μm, and 1512 μm, respectively. The particle size distributions for these three lots are depicted in FIG. 8.
# [4] = Particle Diameter (Lower) 0.375 μm
# [5] = Particle Diameter (Lower) 0.656 μm
# [6] = Particle Diameter (Lower) 1.149 μm
# [7] = Particle Diameter (Lower) 2.011 μm
# [8] = Particle Diameter (Lower) 3.519 μm
# [9] = Particle Diameter (Lower) 6.158 μm
# [10] = Particle Diameter (Lower) 10.78 μm
# [11] = Particle Diameter (Lower) 18.86 μm
# [12] = Particle Diameter (Lower) 33.01 μm
# [13] = Particle Diameter (Lower) 57.77 μm
# [14] = Particle Diameter (Lower) 101.1 μm
# [15] = Particle Diameter (Lower) 176.9 μm
# [16] = Particle Diameter (Lower) 309.6 μm
# [17] = Particle Diameter (Lower) 541.9 μm
# [18] = Particle Diameter (Lower) 948.3 μm
# [19] = Particle Diameter (Lower) 1660 μm
compound,measurement,setting,value
"O.O.O=C([O-])CCNC(=O)c1ccc(/N=N/c2ccc(O)c(C(=O)[O-])c2)cc1.[Na+].[Na+] [Balsalazide disodium, (E)-5-[[-4-[[(2-carboxyethyl)amino]carbonyl]phenyl]azo]-2-hydroxybenzoic acid, disodium salt, dihydrate]",Solubility,[1]; in all other organic solvents,practically insoluble
same,Solubility,[1]; in ethanol,sparingly soluble
same,Solubility,[1]; in isotonic saline,freely soluble
same,Solubility,[1]; in methanol,sparingly soluble
same,Solubility,[1]; in water,freely soluble
same,Time the preparation is stable,[2]; stock standard preparation 0.175 mg/mL in dissolution medium,4 days
same,Time the preparation is stable,[2]; working standard preparation 0.0175 mg/mL in dissolution medium,4 days
O=C([O-])CCNC(=O)c1ccc(/N=N/c2ccc(O)c(C(=O)[O-])c2)cc1.[Na+].[Na+] [Sample 3],"Particle size, % < 10",[3],1.498 μm
same,"Particle size, % < 25",[3],3.385 μm
same,"Particle size, % < 50",[3],6.679 μm
same,"Particle size, % < 75",[3],11.50 μm
same,"Particle size, % < 100",[3],63.41 μm
same,Cum. < Volume %,[3]; [4],0%
same,Diff. Volume %,[3]; [4],2.13%
same,Cum. < Volume %,[3]; [5],2.13%
same,Diff. Volume %,[3]; [5],4.92%
same,Cum. < Volume %,[3]; [6],7.05%
same,Diff. Volume %,[3]; [6],6.97%
same,Cum. < Volume %,[3]; [7],14.0%
same,Diff. Volume %,[3]; [7],12.1%
same,Cum. < Volume %,[3]; [8],26.1%
same,Diff. Volume %,[3]; [8],20.4%
same,Cum. < Volume %,[3]; [9],46.4%
same,Diff. Volume %,[3]; [9],25.7%
same,Cum. < Volume %,[3]; [10],72.2%
same,Diff. Volume %,[3]; [10],19.8%
same,Cum. < Volume %,[3]; [11],92.0%
same,Diff. Volume %,[3]; [11],7.20%
same,Cum. < Volume %,[3]; [12],99.2%
same,Diff. Volume %,[3]; [12],0.79%
same,Cum. < Volume %,[3]; [13],99.997%
same,Diff. Volume %,[3]; [13],0.0029%
same,Cum. < Volume %,[3]; [14],100%
same,Diff. Volume %,[3]; [14],0%
same,Cum. < Volume %,[3]; [15],100%
same,Diff. Volume %,[3]; [15],0%
same,Cum. < Volume %,[3]; [16],100%
same,Diff. Volume %,[3]; [16],0%
same,Cum. < Volume %,[3]; [17],100%
same,Diff. Volume %,[3]; [17],0%
same,Cum. < Volume %,[3]; [18],100%
same,Diff. Volume %,[3]; [18],0%
same,Cum. < Volume %,[3]; [19],100%
same,Diff. Volume %,[3]; [19],0%
same,"Mean particle size (volume statistics, arithmetic)",[3],8.399 μm
same,"Median particle size (volume statistics, arithmetic)",[3],6.679 μm
same,Specific Surf. Area,[3],16802 cm^2/mL
O=C([O-])CCNC(=O)c1ccc(/N=N/c2ccc(O)c(C(=O)[O-])c2)cc1.[Na+].[Na+] [Sample 4],"Particle size, % < 10",[3],3.851 μm
same,"Particle size, % < 25",[3],8.660 μm
same,"Particle size, % < 50",[3],17.82 μm
same,"Particle size, % < 75",[3],30.86 μm
same,"Particle size, % < 100",[3],309.6 μm
same,Cum. < Volume %,[3]; [4],0%
same,Diff. Volume %,[3]; [4],0.61%
same,Cum. < Volume %,[3]; [5],0.61%
same,Diff. Volume %,[3]; [5],1.55%
same,Cum. < Volume %,[3]; [6],2.17%
same,Diff. Volume %,[3]; [6],2.46%
same,Cum. < Volume %,[3]; [7],4.62%
same,Diff. Volume %,[3]; [7],4.37%
same,Cum. < Volume %,[3]; [8],8.99%
same,Diff. Volume %,[3]; [8],8.23%
same,Cum. < Volume %,[3]; [9],17.2%
same,Diff. Volume %,[3]; [9],14.1%
same,Cum. < Volume %,[3]; [10],31.3%
same,Diff. Volume %,[3]; [10],21.2%
same,Cum. < Volume %,[3]; [11],52.5%
same,Diff. Volume %,[3]; [11],25.5%
same,Cum. < Volume %,[3]; [12],78.0%
same,Diff. Volume %,[3]; [12],17.2%
same,Cum. < Volume %,[3]; [13],95.3%
same,Diff. Volume %,[3]; [13],3.43%
same,Cum. < Volume %,[3]; [14],98.7%
same,Diff. Volume %,[3]; [14],1.08%
same,Cum. < Volume %,[3]; [15],99.8%
same,Diff. Volume %,[3]; [15],0.24%
same,Cum. < Volume %,[3]; [16],100%
same,Diff. Volume %,[3]; [16],0%
same,Cum. < Volume %,[3]; [17],100%
same,Diff. Volume %,[3]; [17],0%
same,Cum. < Volume %,[3]; [18],100%
same,Diff. Volume %,[3]; [18],0%
same,Cum. < Volume %,[3]; [19],100%
same,Diff. Volume %,[3]; [19],0%
same,"Mean particle size (volume statistics, arithmetic)",[3],22.93 μm
same,"Median particle size (volume statistics, arithmetic)",[3],17.82 μm
same,Specific Surf. Area,[3],7553 cm^2/mL
